From patent publication US6833387B1, “Chemical compounds” (AstraZeneca AB, priority 1999, dated 2004)
Read-outs that look alike come from different tables or passages of the source.

Legend:
MCP-1 receptor B (CCR2B) = target: T1, MCP-1 receptor B (CCR2B) (Homo sapiens, UniProt P41597); experiment: hMCP-1 receptor binding assay (125I-MCP-1, CHO-CCR2B cell membranes)
T1 construct: expressed in transfected cells; membrane fragments
T1 sequence (P41597 1-360 isoform P41597-2): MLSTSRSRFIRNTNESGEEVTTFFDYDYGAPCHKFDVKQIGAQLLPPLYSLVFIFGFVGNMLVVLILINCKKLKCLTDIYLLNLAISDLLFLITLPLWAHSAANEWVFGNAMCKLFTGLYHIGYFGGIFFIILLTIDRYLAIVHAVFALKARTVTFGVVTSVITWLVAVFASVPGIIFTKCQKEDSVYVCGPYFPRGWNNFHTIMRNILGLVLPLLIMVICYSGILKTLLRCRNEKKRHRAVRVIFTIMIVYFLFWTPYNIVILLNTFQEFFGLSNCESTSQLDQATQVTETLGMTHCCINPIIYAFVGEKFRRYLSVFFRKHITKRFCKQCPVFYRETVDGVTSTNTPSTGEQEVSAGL
From the text: The MCP-1 receptor B (CCR2B) cDNA was cloned by PCR from THP-1 cell RNA using suitable oligonucleotide primers based on the published MCP-1 receptor sequences (Charo et al., 1994, Proc. Natl. Acad Sci. USA. 91, 2752). The resulting PCR products were cloned into vector PCR-II™ (In Vitrogen, San Diego, Calif.). Error free CCR2B cDNA was subcloned as a Hind III-Not I fragment into the eukaryotic expression vector pCDNA3 (In Vitrogen) to generate pCDNA3/CC-CKR2A and pCDNA3/CCR2B respectively.
Linearised pCDNA3/CCR2B DNA was transfected into CHO-K1 cells by calcium phosphate precipitation (Wigler et al., 1979, Cell, 16, 777). Transfected cells were selected by the addition of Geneticin Sulphate (G418, Gibco BRL) at 1 mg/ml, 24 hours after the cells had been transfected. Preparation of RNA and Northern blotting were carried out as described previously (Needham et al., 1995, Prot. Express. Purific., 6, 134). CHO-K1 clone 7 (CHO-CCR2B) was identified as the highest MCP-1 receptor B expressor.
CHO-CCR2B cells were grown in DMEM supplemented with 10% foetal calf serum. 2 mM glutamine. […]
^125I MCP-1 was prepared using Bolton and Hunter conjugation (Bolton et al. 1973. Biochem. J., 133, 529, Amersham International plc]. Equilibrium binding assays were carried out using the method of Ernst et al., 1994, J. Immunol., 152, 3541. Briefly, varying amounts of ^125I-labeled MCP-1 were added to 7 μg of purified CHO-CCR2B cell membranes in 100 μl of Binding Buffer. After 1 hour incubation at room temperature the binding reaction mixtures were filtered and washed 5 times through a plate washer (Brandel MLR-96T Cell Harvester) using ice cold Binding Buffer. Filter mats (Brandel GF/B) were pre-soaked for 60 minutes in 0.3% polyethylenimine prior to use. Following filtration individual filters were separated into 3.5 ml tubes (Sarstedt No. 55,484) and bound ^125I-labeled MCP-1 was determined (LKB 1277 Gammamaster). […] Non-specific binding was determined by the inclusion of a 200-fold molar excess of unlabelled MCP-1 in the reaction. […]

THP-1 cells [1] = experiment: MCP-1 mediated calcium flux in THP-1 cells; type: cell-based, human; details: stimulation of THP-1 cells, approximate; read-out: EC50 for rise in [Ca2+]i
Description: The human monocytic cell line THP-1 was grown in a synthetic cell culture medium RPMI 1640 supplemented with 10% foetal calf serum. 6 mM glutamine and Penicillin-Streptomycin (at 50 μg streptomycin/mil, Gibco BRL). THP-1 cells were washed in HBSS (lacking Ca^2+ and Mg^2+)+1 mg/ml BSA and resuspended in the same buffer at a density of 3×10^6 cells/ml. The cells were then loaded with […] FURA-2/AM for 30 min at 37° C., washed twice in HBSS, and resuspended at 1×10^6 cells/ml. THP-1 cell suspension (0.9 ml) was added to a 5 ml disposable cuvette containing a magnetic stirrer bar and 2.1 ml of prewarmed (37° C.) HBSS containing 1 mg/ml BSA. 1 mM MgCl2 and 2 mM CaCl2. The cuvette was placed in a fluorescence spectrophotometer (Perkin Elmer, Norwalk, Conn.) and preincubated for 4 min at 37° C. with stirring. Fluorescence was recorded over 70 sec and cells were stimulated by addition of hMCP-1 to the cuvette after 10 sec. [Ca^2+]i was measured by excitation at 340 nm and 380 nm alternately and subsequent measurement of the intensity of the fluorescence emission at 510 nm.
where the Kd for FURA-2 Ca^2+ complex at 37° C. was taken to be 224 nm. […]

THP-1 cells [2] = experiment: hMCP-1 mediated chemotaxis; type: cell-based, human; details: THP-1 cell migration
Description: In vitro chemotaxis assays were performed using the human monocytic cell line THP-1. Cell migration through polycarbonate membranes was measured by enumerating those passing through either directly by Coulter counting or indirectly by use of a colourimetric viability assay measuring the cleavage of a tetrazolium salt by the mitochondrial respirator chain (Scudiero D. A., et al. 1988, Cancer Res., 48, 4827-4833).
Chemoattractants were introduced into a 96-well microtitre plate which forms the lower well of a chemotaxis chamber fitted with a PVP-free 5 μm poresize polycarbonate adhesive framed filter membrane (NeuroProbe MB series, Cabin John, Md. 20818, USA) according to the manufacturer's instructions. The chemoattractant was diluted as appropriate in synthetic cell culture medium. […] The plate was incubated at 37° C. for 3 h and the absorbance of the soluble formazan product was read on a microtitre plate reader at 450 nm. The data was input into a spreadsheet, corrected for any random migration in the absence of chemoattractant and the average absorbance values, standard error of the mean, and significance tests were calculated, hMCP-1 induced concentration dependent cell migration with a characteristic biphasic response, maximal 0.5-1.0 nm. […]

Row | Compound | IC50 (MCP-1 receptor B (CCR2B); competition with 100 pM labelled MCP-1, CHO-CCR2B membranes, read-out: IC50 in the hMCP-1 receptor binding assay) | EC50 (THP-1 cells [1]) | IC50 (MCP-1 receptor B (CCR2B); membrane fragments from CHO-CCR2B cells, cold competition, read-out: IC50 of MCP-1 binding to CCR2B) | Kd (MCP-1 receptor B (CCR2B); membrane fragments from CHO-CCR2B cells, equilibrium binding) | concentration of maximal cell migration (biphasic response) (THP-1 cells [2])
1 | O=C(NC1CCS(=O)(=O)C1)c1c(C(=O)O)n(Cc2ccc(Cl)c(Cl)c2)c2ccccc12 (centres unmarked) [Compound 81] | 6860 nM |  |  |  | 
2 | MCP-1: Human Monocyte Chemoattractant Protein-1, a C—C chemokine; ligand of the MCP-1 (CCR2) receptor |  | ~2 nM | 0.11 nM | 0.12 nM | 0.5-1.0 nm
